Assay results: paper PMC12495443, “Developing inhibitors of the guanosine triphosphate hydrolysis accelerating activity of Regulator of G protein Signaling-14 [drawing 1]” (The Journal of Biological Chemistry, 2025)
Where a chain is given by its changes, count along the chain named. Entries after “also recorded” stand apart in the source; their conditions may differ. Like-named read-outs stand apart in the source and are kept apart here.

How the values were obtained:
[1] = target: T1, human RGS14 RGS-box (wild-type) (Homo sapiens, UniProt O43566); test: Transcreener GDP RGScreen fluorescence polarization assay of RGS14 RGS-box GAP activity on Gαi1(DM); format: biochemical; conditions: for Ratio (RGS14 pIC50 / RGS12 pIC50): values > 1.0 reflect RGS14 selectivity; for IC50: Transcreener GDP RGScreen
T1 construct: human RGS14 RGS-box (aa 46–195 of UniProt O43566); host or cells: E. coli
T1 sequence (O43566 46-195): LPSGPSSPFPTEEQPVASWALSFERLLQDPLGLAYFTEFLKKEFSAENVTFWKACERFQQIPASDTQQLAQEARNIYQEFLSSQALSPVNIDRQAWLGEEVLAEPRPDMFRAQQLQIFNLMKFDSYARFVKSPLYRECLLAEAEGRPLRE
From the text: (§1) We previously described work with BellBrook Labs creating the Transcreener GDP RGScreen fluorescence polarization assay of steady-state GTP hydrolysis, leveraging a double point-mutant in the Gα enzyme to make GTP hydrolysis, rather than GDP (product) release, the rate-limiting step for multiple rounds of GTP conversion ([57], [59]). […] Titrating inputs of the double point-mutant (“DM”) Gαi1 and RGS-box recombinant proteins (Fig. S2, B and C) established a robust, medium-throughput assay for evaluating potential RGS14 and RGS12 inhibitors, with “assay quality” Z′ scores ([60]) above 0.76 for each target (Fig. S2D).
(§2) Reagents and protocols for the fluorescence anisotropy-based Transcreener GDP RGScreen assay using a rate-altered, double point-mutant, recombinant Gαi1 protein have been extensively described previously ([43], [44]); reactions were always performed so that total GTP converted over the time course was consistently less than 10% of reaction maximum input. Specific methods for its application in assessing RGS14 and RGS12 GAP activity are summarized as follows. Open-reading frames (ORFs) encoding wild-type versions of the human RGS14 RGS-box (aa 46–195 of UniProt O43566) and human RGS12 RGS-box (aa 695–843 of UniProt O14924) were each sub-cloned in-frame with an N-terminal hexahistidine (His6) expression tag in the plasmid pET30a, expressed in E. coli cultures, and then purified by nickel-nitriloacetate (Ni-NTA) and size-exclusion (Superdex 200) column chromatographies by GenScript using previously described methods ([35]). These recombinant His6-tag fusion proteins were stored at −80 °C in storage buffer (150 mM NaCl, 50 mM Tris-HCl pH 8.0, 10% glycerol) before thawing and use. Cysteine-less versions were similarly produced by ORF site-directed mutagenesis: for RGS14, codons for cysteine residues 47 and 130 (numbered as in PDB id 2JNU) were replaced with serine codons; for RGS12, codons for cysteines 4, 51, 78, and 134 (numbered in relation to PDB id 2EBZ) were replaced with serine codons. Use of Transcreener GDP-detection reagents to assess compound inhibition of Naegleria fowleri Gα7 protein GTPase activity ([83]) has previously been described ([84]).

[2] = target: T2, human RGS12 RGS-box (wild-type) (Homo sapiens, UniProt O14924); test: Transcreener GDP RGScreen fluorescence polarization assay of RGS12 RGS-box GAP activity on Gαi1(DM); format: biochemical; conditions: wild-type RGS12 RGS-box GAP activity, Gαi1(DM), read-out: RGS12 pIC50 (converted)
T2 construct: human RGS12 RGS-box (aa 695–843 of UniProt O14924); host or cells: E. coli
T2 sequence (O14924 695-843): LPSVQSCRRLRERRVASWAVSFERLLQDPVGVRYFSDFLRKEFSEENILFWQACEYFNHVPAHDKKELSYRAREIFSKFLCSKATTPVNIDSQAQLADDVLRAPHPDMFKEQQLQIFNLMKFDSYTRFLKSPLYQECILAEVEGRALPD
From the text: as §1, §2

THP-1 cell line = test: Cytotoxicity assays (CytoTox-Glo, CytoTox 96); format: cell-based; conditions: THP-1 cells, overnight, CytoTox-Glo and CytoTox 96
Procedure: To evaluate cellular toxicity of active compounds, we employed the immortalized human monocytic THP1-Dual cell line (InvivoGen) in two orthogonal cytotoxicity assays: ATP-dependent luminescence (CytoTox-Glo) and colorimetric lactate dehydrogenase (LDH) release (CytoTox 96). For each assay, compounds were serially diluted 2-fold starting at 250 μM and added to 96-well flat-bottom tissue culture plates (Thermo Scientific Nunc, Cat# 165306). THP1-Dual cells were then seeded at 20,000 to 30,000 cells per well in 100 μl RPMI 1640 media supplemented with 10% fetal bovine serum (Gibco). Plates were gently mixed and incubated overnight at 37 °C in a humidified 5% CO2 incubator. For the CytoTox-Glo assay (Promega, Cat# G9291), 50 μl of assay reagent was added to each well. Plates were mixed briefly, sealed, and incubated at room temperature for 15 min before reading luminescence on a TECAN Infinite M1000 Pro plate reader to quantify dead-cell signal. Subsequently, 50 μl of a digitonin-containing lysis solution was added to each well, followed by a second luminescence read after 15 min to assess total cell content. Percent cytotoxicity was calculated per manufacturer instructions. For the CytoTox 96 Non-Radioactive Cytotoxicity Assay (Promega, Cat# G1780), after overnight compound treatment, LDH release into the culture medium was measured by adding the provided substrate mix. Absorbance was read at 490 or 492 nm within 1 h of adding the stop solution. Assay optimization and data normalization were conducted according to the manufacturer’s technical manual.

[3] = Single-dose pharmacokinetic study, plasma and brain by LC-MS/MS; format: in vivo, male Swiss-Webster mice
Procedure: Single-dose pharmacokinetic (PK) studies were conducted under IACUC-approved protocols of the UNTSCP Preclinical Services laboratory at the University of North Texas Health Science Center. Male Swiss-Webster (CFW) mice (∼30 g; Charles River) were used in both studies, housed in groups of three per cage with ad libitum access to food and water and acclimated for a minimum of 3 days prior to dosing. Each compound was evaluated in a single-dose, time-course design using three mice per time point across seven collection points (0.25, 0.5, 1, 2, 4, 8, and 24 h post-dose). For Z56944652, mice received a single intraperitoneal (IP) dose of 10 mg/kg (0.2 ml at 1.5 mg/ml). At each designated time point, mice were euthanized via CO2 inhalation, and blood was collected by cardiac puncture for plasma isolation (K2-EDTA tubes). Brains were aseptically removed, flash-frozen, and stored at −80 °C. For Z55628018, due to poor detection in preliminary studies, the protocol was modified to enhance systemic exposure. Mice were pre-dosed orally with 50 mg/kg of the pan-CYP inhibitor 1-aminobenzotriazole (ABT; ref. ([67])) 2 h prior to administration of Z55628018. The compound was then administered via IP injection at a single dose of 30 mg/kg (0.2 ml at […]). Sample collection and processing procedures were identical to those described above for Z56944652.
LC-MS/MS analyses were performed at UNTHSC using an Agilent 1260 Infinity HPLC system coupled to an Agilent 6460 Triple Quadrupole mass spectrometer equipped with Jet Stream electrospray ionization (ESI) in positive ion mode. Separation was carried out on a Poroshell 120 EC-C18 column (50 × 3.0 mm, 2.7 μm particle size) maintained at 30 °C, with a mobile phase consisting of 0.1% formic acid in water (A) and 0.1% formic acid in acetonitrile (B) under a standard gradient elution at a flow rate of 0.5 ml/min. The injection volume was 2 μl. Multiple reaction monitoring (MRM) transitions were optimized for each compound: Z56944652 was detected at m/z 353.1 → 227/132/126, and Z55628018 at m/z 391 → 134.8/247.9/132/121. The internal standard, carbamazepine, was monitored at m/z 237.2 → 167. Plasma samples (30–40 μl) were extracted with 1000 to 1200 μl of either acetonitrile or a 50:50 acetonitrile:methanol mixture containing carbamazepine (150–500 ng/ml), followed by vortexing, sonication, centrifugation, and supernatant collection for injection. Brain samples were homogenized in organic solvent (2 ml per 0.5 g tissue), vortexed, centrifuged, and processed using the same analytical workflow. Matrix-matched calibration curves were prepared using blank plasma or brain extract and validated over appropriate dynamic ranges: 0.09 to 46 μg/ml (plasma) and 0.547 to 70 ng/ml (brain) for Z56944652; 0.1 to 12.5 μg/ml (plasma) and 0.1 to 3.13 ng/ml (brain) for Z55628018. […] Retention times were 5.0 ± 0.01 min for Z56944652 and 3.3 ± 0.01 min for Z55628018, with the internal standard eluting at 4.0 ± 0.02 min.

[4] = target: T3, cysteine-less RGS14 RGS-box protein (Homo sapiens, UniProt O43566, C100S/C183S); test: Transcreener GDP RGScreen assay with cysteine-less RGS14 RGS-box; format: biochemical; conditions: compared with wild-type RGS14 RGS-box
T3 construct: human RGS14 RGS-box (aa 46–195 of UniProt O43566); host or cells: E. coli
T3 sequence (O43566 46-195 C100S/C183S): T1 sequence (O43566 46-195) with C55S, C138S
From the text: Given the earlier experience with screening hit CCG-4986 being a covalent modifier of RGS4 cysteine residues ([35]), we sought to exclude protein-thiol reactivity as a potential mechanism of action of the active compounds derived from the AtomNet virtual screening effort ([55]) and SAR campaign follow-ups. To address this possibility and screen out thiol-reactive hits, cysteine-lacking versions of recombinant proteins spanning the RGS-boxes of RGS14 and RGS12 were purified from E. coli cultures.
Reagents and protocols for the fluorescence anisotropy-based Transcreener GDP RGScreen assay using a rate-altered, double point-mutant, recombinant Gαi1 protein have been extensively described previously ([43], [44]); reactions were always performed so that total GTP converted over the time course was consistently less than 10% of reaction maximum input. Specific methods for its application in assessing RGS14 and RGS12 GAP activity are summarized as follows. Open-reading frames (ORFs) encoding wild-type versions of the human RGS14 RGS-box (aa 46–195 of UniProt O43566) and human RGS12 RGS-box (aa 695–843 of UniProt O14924) were each sub-cloned in-frame with an N-terminal hexahistidine (His6) expression tag in the plasmid pET30a, expressed in E. coli cultures, and then purified by nickel-nitriloacetate (Ni-NTA) and size-exclusion (Superdex 200) column chromatographies by GenScript using previously described methods ([35]). […]
Supplementary Figure S5. […] (A,B) Recombinant, cysteine residue-lacking (“-cys”) RGS14 RGS-box protein (panel A) and cysteine residue-lacking RGS12 RGS-box protein ([…]) were both observed, in a concentration-dependent fashion (indicated in ng/µL by color), to increase steady-state GDP production by 0.5 ng/µL Gai1(DM) protein in a 20 µL final reaction volume, as measured by the Transcreener® GDP-detection RGScreen™ assay and detected by the change in polarization (ΔmP) at each indicated time point (“enz” = Gai1(DM) protein a.k.a. […]

[5] = wild-type RGS14 RGS-box GAP activity, Gαi1(DM), read-out: RGS14 pIC50 (converted)

Row | IC50 [1, 5] [µM] | IC50 [2] [µM] | SMILES | Ratio (RGS14 pIC50 / RGS12 pIC50) [1] | cytotoxicity (THP-1 cell line) | other results
1 | ~200 | 63.1 | CC(Sc1n[nH]c2nc3ccccc3n12)C(=O)c1c(F)cc(F)cc1F (stereo not drawn) [Z1098346193, 2-(2,4,5,7-tetraaza-tricyclo[6.4.0.0²,⁶]dodeca-1(12),3,5,8,10-pentaen-3-ylsulfanyl)-1-(2,4,6-trifluorophenyl)propan-1-one] | – | – | –
2 | 27.5 | 100 | COC(=O)C1Sc2nnc(COc3ccc(OC)cc3)n2N=C1c1cccc(N2CCCC2=O)c1 (stereo not drawn) [Z7976707565] | 1.14 | – | –
3 | 100 | 40.7 | COC(=O)C1Sc2nnc(COc3ccc(F)cc3)n2N=C1c1cc2ccccc2o1 (stereo not drawn) [Z8201263931] | 0.91 | – | –

Continued, compound first:

Row | SMILES | IC50 [1, 5] [µM] | IC50 [2] [µM] | Ratio (RGS14 pIC50 / RGS12 pIC50) [1] | cytotoxicity (THP-1 cell line) | other results
4 | C1=C(c2cc3ccccc3o2)Nn2c(nnc2C2COc3ccccc3O2)S1 (stereo not drawn) [Z55628018, 6-(1-benzofuran-2-yl)-3-(2,3-dihydro-1,4-benzodioxin-2-yl)-5H-[1,2,4]triazolo[3,4-b][1,3,4]thiadiazine] | 14.5 | 5.75 | 0.92 | Neither triazolothiadiazine derivative was observed to induce significant cell death | brain tissue concentration ([3]; 30 mg/kg IP after 50 mg/kg oral 1-aminobenzotriazole, any time point): No measurable concentrations; also recorded: undetectable; concentration at 1 h ([3]; male, Swiss-Webster (CFW), mouse, plasma, intraperitoneal, 30 mg/kg IP after 50 mg/kg oral 1-aminobenzotriazole, one of three mice, 1-h time point): 170 ng/mL
5 | COc1ccccc1C1=CSc2nnc(COc3ccccc3)n2N1 [Z56944652, 6-(2-methoxyphenyl)-3-(phenoxymethyl)-5H-[1,2,4]triazolo[3,4-b][1,3,4]thiadiazine] | 19.1 | 3.39 | 0.86 | Neither triazolothiadiazine derivative was observed to induce significant cell death | time of peak brain level ([3]; 10 mg/kg IP single dose, mice): 1 h; peak brain level ([3]; 10 mg/kg IP single dose, mice, 1 h post-dose): ~20 ng/g tissue; peak CNS level (mean ± SD) ([3]; 10 mg/kg IP, three Swiss Webster mice, at 1 h): 19.5 ± 0.3 ng/gram brain tissue; Kp ([3]; male, Swiss-Webster (CFW), mouse, brain, 10 mg/kg IP, throughout the measured time course, read-out: brain-to-plasma concentration ratio (Kp)): ~1
6 | CN1C(=O)[C@@]23C[C@]4([C@]56C[C@@]78SS[C@@](CO)(C(=O)N7[C@H]5Nc5ccccc56)N(C)C8=O)c5ccccc5N[C@@H]4N2C(=O)[C@]1(CO)SS3 [chaetocin, reference compound] | – | – | – | – | IC50 ([1]; wild-type RGS14 RGS-box, read-out: IC50 against RGS14 RGS-box GAP activity): 0.32 µM; inhibitory activity on cysteine-free RGS14 RGS-box (in words) [4]: largely lost
